Measurements taken from patent US20230265116A1, “DEGRADATION OF (EGFR) BY CONJUGATION OF EGFR INHIBITORS WITH E3 LIGASE LIGAND AND METHODS OF USE” (BEIGENE, LTD., priority 2020, published 2023).

Key:
Type in all cases: cell-based
[1] = molecular target: T1, EGFR WT (BaF3 WT cells) (Homo sapiens, UniProt P00533); test: EGFR degradation HTRF assay, BaF3 WT cells; settings: BaF3 WT, 16h treatment; for Dmax: maximum percentage of degradation, read-out: WT Dmax (%)
T1 construct: expressed in transfected cells; host or cells: BaF3
Protocol: BaF3 WT(wild type), BaF3-LTC(L858R/T790M/C797S) and BaF3-DTC(Del19/T790M/C797S) cells are treated with compounds diluted in 0.2% DMSO cell culture medium and incubate for 16h, 37° C., 5% CO2, H1975-#36, H1975-#28, H1975-#23 and HCC827 cells are treated with compounds diluted in 0.2% DMSO cell culture medium on day 2, incubate for 16h, 37° C., 5% CO2.the final concentriation of compounds in all assay is start with 10 uM, 5-fold dilution, total 8 doses were included.
After 16h treatment, add HTRF lysis buffer to each well; seal the plate and incubate 1 hour at room temperature on a plate shaker; Once the cells are lysed, 16 μL of cell lysate are transferred to a PE 384-well HTRF detection plate; 4 μL of pre-mixed HTRF antibodies are added to each well; Cover the plate with a plate sealer, spin 1000 rpm for 1 min, Incubate overnight at room temperature; Read on BMG PheraStar with HTRF protocol (337 nm-665 nm-620 nm).
The inhibition (degradation) percentage of the compound was calculated by the following equation: Inhibition percentage of Compound=100-100×(Signal-low control)/(High control-low control), wherein signal=each test compound group
High control=Cell group with added DMSO and without compound, indicating microplate readings without EGFR degradation;
Dmax is the maximum percentage of inhibition (degradation).
The IC50 (DC50) value of a compound can be obtained by fitting the following equation
Y=Bottom+(TOP−Bottom)/(1+((IC50/X)^hillslope))
Wherein, X and Y are known values, and IC50, Hillslope, Top and Bottom are the parameters obtained by fitting with software. Y is the inhibition percentage (calculated from the equation), X is the concentration of the compound; IC50 is the concentration of the compound when the 50% inhibition is reached. The smaller the IC50 value is, the stronger the inhibitory ability of the compound is. Vice versa, the higher the IC50 value is, the weaker the inhibitory ability of the compound is; Hillslope represents the slope of the fitted curve, generally around 1*; Bottom represents the minimum value of the curve obtained by data fitting, which is generally 0%±20%; Top represents the maximum value of the curve obtained by data fitting, which is generally 100%±20%. The experimental data were fitted by calculating and analyzing with Dotmatics data analysis software.

[2] = tested on: EGFR Del19/T790M/C797S (BaF3-DTC cells); test: EGFR degradation HTRF assay, BaF3-DTC cells; settings: 16h treatment; for DTC Dmax (%): maximum percentage of degradation; for DC50: read-out: DTC DC50
Method in brief: (§1)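 Cells treated 16 h at 37 °C, 5% CO2 in medium with 0.2% DMSO; top final concentration 10 uM, 5-fold dilution, 8 doses. Lysates read by HTRF (665/620 nm); degradation % versus DMSO high control, DC50 from four-parameter fit, Dmax as maximal degradation.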

[3] = molecular target: T2, EGFR L858R/T790M/C797S (BaF3-LTC cells) (Homo sapiens, UniProt P00533, C797S/L858R/T790M); test: EGFR degradation HTRF assay, BaF3-LTC cells; settings: BaF3-LTC, 16h treatment; for Dmax: maximum percentage of degradation, read-out: LTC Dmax (%); for DC50: read-out: LTC DC50
T2 construct: expressed in transfected cells; host or cells: BaF3
Method in brief: as §1

[4] = molecular target: T3, EGFR L858R/T790M (H1975-clone #36, homozygous) (Homo sapiens, UniProt P00533, L858R/T790M); test: EGFR degradation HTRF assay, H1975-clone #36 cells; settings: H1975 #36, 16h treatment; for Dmax: NCI-H1975, maximum percentage of degradation
T3 construct: designed to specifically target WT EGFR but preserve the L858R/T790M copy; host or cells: H1975-clone #36
Method in brief: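 H1975 clone #36, made homozygous for L858R/T790M EGFR by knockout of the WT allele, treated 16 h at 37 °C with compound in 0.2% DMSO medium. Eight doses from 10 uM, 5-fold dilutions. EGFR measured by HTRF in lysates. DC50 and Dmax fitted against DMSO controls.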

[5] = molecular target: T4, EGFR (HCC827 cells) (Homo sapiens, UniProt P00533, DEL746-750); test: EGFR degradation HTRF assay, HCC827 cells; settings: HCC827, 16h treatment; for Dmax: maximum percentage of degradation
T4 construct: endogenous in cells; host or cells: HCC827
Method in brief: as §1

T1 sequence (P00533 25-1210): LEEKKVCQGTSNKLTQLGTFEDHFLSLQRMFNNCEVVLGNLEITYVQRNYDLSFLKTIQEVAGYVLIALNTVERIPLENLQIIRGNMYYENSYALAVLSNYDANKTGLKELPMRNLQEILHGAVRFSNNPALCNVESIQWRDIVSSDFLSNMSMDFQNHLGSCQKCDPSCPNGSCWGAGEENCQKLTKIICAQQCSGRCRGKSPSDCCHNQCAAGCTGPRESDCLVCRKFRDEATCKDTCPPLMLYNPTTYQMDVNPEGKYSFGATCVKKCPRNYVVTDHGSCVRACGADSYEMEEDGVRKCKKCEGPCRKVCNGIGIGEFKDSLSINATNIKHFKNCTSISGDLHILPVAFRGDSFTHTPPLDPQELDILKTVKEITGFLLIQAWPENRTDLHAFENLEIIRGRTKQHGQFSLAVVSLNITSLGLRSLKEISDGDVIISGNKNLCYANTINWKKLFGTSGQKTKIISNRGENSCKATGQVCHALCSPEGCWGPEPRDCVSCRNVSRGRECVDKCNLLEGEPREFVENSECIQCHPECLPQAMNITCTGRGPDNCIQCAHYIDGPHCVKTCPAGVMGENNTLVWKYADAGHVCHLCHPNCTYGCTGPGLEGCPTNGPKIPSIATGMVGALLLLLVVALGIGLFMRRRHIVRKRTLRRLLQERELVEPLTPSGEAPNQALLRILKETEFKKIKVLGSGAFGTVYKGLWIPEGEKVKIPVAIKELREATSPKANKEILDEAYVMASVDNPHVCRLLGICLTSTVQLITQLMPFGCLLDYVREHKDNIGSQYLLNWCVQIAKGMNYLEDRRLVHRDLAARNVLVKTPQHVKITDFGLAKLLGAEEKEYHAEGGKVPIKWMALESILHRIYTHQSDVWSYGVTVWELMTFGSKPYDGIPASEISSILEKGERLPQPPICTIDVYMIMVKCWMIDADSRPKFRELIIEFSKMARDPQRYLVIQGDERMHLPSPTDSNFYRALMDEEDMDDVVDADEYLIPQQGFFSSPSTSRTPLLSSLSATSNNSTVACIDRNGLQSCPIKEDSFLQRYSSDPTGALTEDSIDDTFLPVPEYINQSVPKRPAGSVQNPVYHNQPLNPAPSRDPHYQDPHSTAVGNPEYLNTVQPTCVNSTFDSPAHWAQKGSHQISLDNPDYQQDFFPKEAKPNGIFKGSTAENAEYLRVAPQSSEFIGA
T2 sequence (P00533 25-1210 T790M/C797S/L858R): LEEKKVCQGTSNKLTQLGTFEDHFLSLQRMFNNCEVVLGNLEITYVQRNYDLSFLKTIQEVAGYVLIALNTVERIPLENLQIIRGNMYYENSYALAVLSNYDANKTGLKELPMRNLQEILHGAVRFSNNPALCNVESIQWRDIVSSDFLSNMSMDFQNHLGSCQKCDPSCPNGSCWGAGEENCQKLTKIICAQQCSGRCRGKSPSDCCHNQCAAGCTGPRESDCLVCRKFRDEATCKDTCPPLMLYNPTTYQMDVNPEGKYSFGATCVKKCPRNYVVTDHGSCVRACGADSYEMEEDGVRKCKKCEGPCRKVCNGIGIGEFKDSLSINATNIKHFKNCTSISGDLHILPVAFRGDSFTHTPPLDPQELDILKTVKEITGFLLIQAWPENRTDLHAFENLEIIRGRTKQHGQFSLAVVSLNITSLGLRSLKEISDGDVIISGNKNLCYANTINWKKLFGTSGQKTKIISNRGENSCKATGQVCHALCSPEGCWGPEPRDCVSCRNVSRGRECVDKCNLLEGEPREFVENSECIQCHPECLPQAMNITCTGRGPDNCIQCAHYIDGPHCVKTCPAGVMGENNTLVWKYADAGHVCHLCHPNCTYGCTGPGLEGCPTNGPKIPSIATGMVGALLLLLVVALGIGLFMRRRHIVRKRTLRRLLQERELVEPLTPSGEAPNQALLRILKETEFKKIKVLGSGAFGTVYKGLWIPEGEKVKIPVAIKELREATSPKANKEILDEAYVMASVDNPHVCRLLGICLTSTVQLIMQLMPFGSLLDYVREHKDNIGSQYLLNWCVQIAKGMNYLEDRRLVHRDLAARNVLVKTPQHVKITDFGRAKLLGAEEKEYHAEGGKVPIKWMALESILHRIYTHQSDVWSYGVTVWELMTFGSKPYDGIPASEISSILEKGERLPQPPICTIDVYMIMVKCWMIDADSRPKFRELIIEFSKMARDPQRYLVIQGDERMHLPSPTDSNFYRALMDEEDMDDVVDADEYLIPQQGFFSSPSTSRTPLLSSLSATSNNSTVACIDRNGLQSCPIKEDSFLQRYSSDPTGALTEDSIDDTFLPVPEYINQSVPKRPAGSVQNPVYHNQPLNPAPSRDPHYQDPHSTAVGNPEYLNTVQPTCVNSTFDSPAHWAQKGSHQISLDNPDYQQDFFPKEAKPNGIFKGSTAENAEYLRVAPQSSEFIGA
T3 sequence (P00533 25-1210 T790M/L858R): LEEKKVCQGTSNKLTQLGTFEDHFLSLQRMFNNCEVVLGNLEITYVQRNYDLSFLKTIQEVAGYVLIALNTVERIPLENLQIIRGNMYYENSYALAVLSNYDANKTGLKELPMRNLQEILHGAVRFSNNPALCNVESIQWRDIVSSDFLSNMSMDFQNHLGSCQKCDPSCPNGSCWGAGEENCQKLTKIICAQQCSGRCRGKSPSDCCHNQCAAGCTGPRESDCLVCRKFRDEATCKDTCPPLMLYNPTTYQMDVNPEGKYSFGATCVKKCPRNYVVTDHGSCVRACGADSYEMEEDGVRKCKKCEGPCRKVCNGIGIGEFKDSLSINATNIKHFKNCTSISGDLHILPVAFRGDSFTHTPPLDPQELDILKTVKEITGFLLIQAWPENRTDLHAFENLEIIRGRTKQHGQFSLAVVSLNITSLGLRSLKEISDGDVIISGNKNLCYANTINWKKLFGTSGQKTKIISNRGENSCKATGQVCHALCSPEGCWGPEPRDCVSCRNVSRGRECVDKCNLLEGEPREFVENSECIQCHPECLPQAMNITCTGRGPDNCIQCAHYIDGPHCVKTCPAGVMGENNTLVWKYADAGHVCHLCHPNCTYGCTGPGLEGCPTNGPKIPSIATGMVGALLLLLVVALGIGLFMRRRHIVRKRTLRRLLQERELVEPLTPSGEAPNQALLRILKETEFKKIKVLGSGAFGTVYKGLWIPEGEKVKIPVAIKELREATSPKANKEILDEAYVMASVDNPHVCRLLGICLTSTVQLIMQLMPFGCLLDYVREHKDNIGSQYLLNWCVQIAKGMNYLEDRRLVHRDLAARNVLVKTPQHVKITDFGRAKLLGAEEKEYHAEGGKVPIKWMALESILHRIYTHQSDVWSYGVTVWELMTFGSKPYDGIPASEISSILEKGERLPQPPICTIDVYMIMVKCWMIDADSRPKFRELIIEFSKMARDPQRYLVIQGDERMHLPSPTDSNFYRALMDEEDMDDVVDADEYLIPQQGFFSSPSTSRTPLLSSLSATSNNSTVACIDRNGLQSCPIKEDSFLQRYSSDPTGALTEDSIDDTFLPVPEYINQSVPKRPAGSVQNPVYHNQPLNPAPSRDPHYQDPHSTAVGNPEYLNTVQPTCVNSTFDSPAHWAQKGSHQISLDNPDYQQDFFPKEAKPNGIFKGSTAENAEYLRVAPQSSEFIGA
T4 sequence (P00533 with tags, fused parts or gaps DEL746-750): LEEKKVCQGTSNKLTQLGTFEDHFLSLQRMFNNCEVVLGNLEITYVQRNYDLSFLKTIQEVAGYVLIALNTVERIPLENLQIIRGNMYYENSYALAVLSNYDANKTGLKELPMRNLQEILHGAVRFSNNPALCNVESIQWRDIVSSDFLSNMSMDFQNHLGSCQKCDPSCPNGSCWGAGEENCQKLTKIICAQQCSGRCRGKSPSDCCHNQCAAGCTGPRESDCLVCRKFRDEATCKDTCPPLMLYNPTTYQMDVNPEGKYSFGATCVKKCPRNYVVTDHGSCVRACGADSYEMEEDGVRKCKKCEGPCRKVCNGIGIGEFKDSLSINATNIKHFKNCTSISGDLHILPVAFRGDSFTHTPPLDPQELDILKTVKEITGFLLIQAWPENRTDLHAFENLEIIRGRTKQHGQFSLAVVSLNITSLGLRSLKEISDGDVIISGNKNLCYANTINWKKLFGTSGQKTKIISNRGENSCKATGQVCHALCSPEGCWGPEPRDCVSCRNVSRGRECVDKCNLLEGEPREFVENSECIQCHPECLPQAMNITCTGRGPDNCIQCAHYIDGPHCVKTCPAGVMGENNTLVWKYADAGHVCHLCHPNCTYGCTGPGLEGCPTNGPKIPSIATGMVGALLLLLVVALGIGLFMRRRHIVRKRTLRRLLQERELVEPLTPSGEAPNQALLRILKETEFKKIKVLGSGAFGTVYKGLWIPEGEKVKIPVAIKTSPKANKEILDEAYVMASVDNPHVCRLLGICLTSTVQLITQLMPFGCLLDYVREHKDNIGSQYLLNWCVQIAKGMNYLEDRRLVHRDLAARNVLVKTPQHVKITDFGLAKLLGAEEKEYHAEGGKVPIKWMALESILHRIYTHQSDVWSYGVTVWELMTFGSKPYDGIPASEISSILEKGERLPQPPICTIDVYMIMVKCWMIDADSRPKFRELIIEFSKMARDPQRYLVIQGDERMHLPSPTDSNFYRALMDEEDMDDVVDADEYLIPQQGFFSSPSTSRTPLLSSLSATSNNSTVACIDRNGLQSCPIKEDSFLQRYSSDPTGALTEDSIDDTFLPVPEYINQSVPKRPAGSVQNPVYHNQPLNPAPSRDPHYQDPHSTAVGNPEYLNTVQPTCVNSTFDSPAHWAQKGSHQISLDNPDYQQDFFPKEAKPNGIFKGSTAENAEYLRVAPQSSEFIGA

DC50 [1] | Dmax [1] | DC50 [2] | Dmax [3] | DC50 [3] | DC50 [4] | Dmax [4] | DC50 [5] | Dmax [5] | SMILES | DTC Dmax (%) [2]
> 10000 nM | 14.6% | 13.3 nM | 89% | 25.6 nM | 14.1 nM | 65.5% | 2.05 nM | 93.4% | CCc1cc(Nc2ncc(Br)c(Nc3ccc4nccnc4c3P(C)(C)=O)n2)c(OC)cc1N1CCC(N2CCN(CCC3CCN(c4ccc(C5CCC(=O)NC5=O)cc4)CC3)CC2)CC1 (stereo not drawn) [Example 23, 3-(4-(4-(2-(4-(1-(4-((5-bromo-4-((5-(dimethylphosphoryl)quinoxalin-6-yl)amino)pyrimidin-2-yl)amino)-2-ethyl-5-methoxyphenyl)piperidin-4-yl)piperazin-1-yl)ethyl)piperidin-1-yl)phenyl)piperidine-2,6-dione] | 95.73%
> 10000 nM | 29.1% | 15.1 nM | 91% | 77.2 nM | 5.3 nM | 97.3% | 3.34 nM | 89.2% | COc1cc(N2CCC(N3CCN(C(=O)C4CCN(CC5CCN(c6ccc7c(c6)C(=O)N(C6CCC(=O)NC6=O)C7=O)CC5)CC4)CC3)CC2)ccc1Nc1ncc(Cl)c(Nc2ccccc2P(C)(C)=O)n1 (stereo not drawn) [Example 113, 5-(4-((4-(4-(1-(4-((5-chloro-4-((2-(dimethylphosphoryl)phenyl)amino)pyrimidin-2-yl)amino)-3-methoxyphenyl)piperidin-4-yl)piperazine-1-carbonyl)piperidin-1-yl)methyl)piperidin-1-yl)-2-(2,6-dioxopiperidin-3-yl)isoindoline-1,3-dione] | 99.16%
> 10000 nM | 35.3% | 13.5 nM | 82.1% | 17 nM | 7.24 nM | 95.8% | 9.06 nM | 89.9% | CP(C)(=O)c1c(Nc2nc(Nc3ccc(N4CCN(C5CN(CCC6CCN(c7ccc(C8CCC(=O)NC8=O)c(F)c7)CC6)C5)CC4)c(F)c3)ncc2Br)ccc2nccnc12 (stereo not drawn) [Example 203, 3-(4-(4-(2-(3-(4-(4-((5-bromo-4-((5-(dimethylphosphoryl)quinoxalin-6-yl)amino)pyrimidin-2-yl)amino)-2-fluorophenyl)piperazin-1-yl)azetidin-1-yl)ethyl)piperidin-1-yl)-2-fluorophenyl)piperidine-2,6-dione] | 92.4%
2920 nM | 52.6% | 7.6 nM | 90.4% | 24.3 nM | 9.23 nM | 64.5% | 4.42 nM | 76.6% | CCc1cc(Nc2ncc(Br)c(Nc3ccc4nccnc4c3P(C)(C)=O)n2)c(OC)cc1N1CCC(N2CCN(CCc3ccc(NC4CCC(=O)NC4=O)cc3)CC2)CC1 (stereo not drawn) [Example 48, 3-((4-(2-(4-(1-(4-((5-bromo-4-((5-(dimethylphosphoryl)quinoxalin-6-yl)amino)pyrimidin-2-yl)amino)-2-ethyl-5-methoxyphenyl)piperidin-4-yl)piperazin-1-yl)ethyl)phenyl)amino)piperidine-2,6-dione] | 92.6%
> 10000 nM | 16.9% | 9.52 nM | 79.5% | 31.4 nM | 6.5 nM | 88.8% | 2.63 nM | 93.4% | CCc1cc(Nc2ncc(Br)c(Nc3ccc4nccnc4c3P(C)(C)=O)n2)c(OC)cc1N1CCC(N2CCN(CCCC3CN(c4ccc5c(c4)C(=O)N(C4CCC(=O)NC4=O)C5=O)C3)CC2)CC1 (stereo not drawn) [Example 56, 5-(3-(3-(4-(1-(4-((5-bromo-4-((5-(dimethylphosphoryl)quinoxalin-6-yl)amino)pyrimidin-2-yl)amino)-2-ethyl-5-methoxyphenyl)piperidin-4-yl)piperazin-1-yl)propyl)azetidin-1-yl)-2-(2,6-dioxopiperidin-3-yl)isoindoline-1,3-dione] | 82.17%
> 10000 nM | 21.6% | 273 nM | 21.2% | > 10000 nM | 12.4 nM | 79.7% | 15.9 nM | 88.8% | COc1cc(N2CCC(N3CCN(C(=O)CCN4CCC(c5ccc(C6CCC(=O)NC6=O)cc5)CC4)CC3)CC2)ccc1Nc1ncc(Cl)c(Nc2ccccc2N(C)S(C)(=O)=O)n1 (stereo not drawn) [Example 123, N-(2-((5-chloro-2-((4-(4-(4-(3-(4-(4-(2,6-dioxopiperidin-3-yl)phenyl)piperidin-1-yl)propanoyl)piperazin-1-yl)piperidin-1-yl)-2-methoxyphenyl)amino)pyrimidin-4-yl)amino)phenyl)-N-methylmethanesulfonamide] | 83.94%
> 10000 nM | 15.4% | 8.05 nM | 75.5% | 14.2 nM | 2.31 nM | 85.6% | 2.53 nM | 73.9% | CCc1cc(Nc2ncc(Br)c(Nc3ccc4nccnc4c3P(C)(C)=O)n2)c(OC)cc1N1CCC(N2CCN(C(=O)[C@@H]3CCN(c4ccc5c(c4)C(=O)N(C4CCC(=O)NC4=O)C5=O)C3)CC2)CC1 (stereo partly drawn) [Example 65, 5-((R)-3-(4-(1-(4-((5-bromo-4-((5-(dimethylphosphoryl)quinoxalin-6-yl)amino)pyrimidin-2-yl)amino)-2-ethyl-5-methoxyphenyl)piperidin-4-yl)piperazine-1-carbonyl)pyrrolidin-1-yl)-2-(2,6-dioxopiperidin-3-yl)isoindoline-1,3-dione] | 80.45%
> 10000 nM | 22.2% | 6.05 nM | 90.4% | 20.1 nM | 9.34 nM | 77.2% | 2.84 nM | 90% | CCc1cc(Nc2ncc(Br)c(Nc3ccc4nccnc4c3P(C)(C)=O)n2)c(OC)cc1N1CCC(N2CCN(C(=O)CCN3CCN(c4ccc5c(c4)C(=O)N(C4CCC(=O)NC4=O)C5=O)CC3)CC2)CC1 (stereo not drawn) [Example 61, 5-(4-(3-(4-(1-(4-((5-bromo-4-((5-(dimethylphosphoryl)quinoxalin-6-yl)amino)pyrimidin-2-yl)amino)-2-ethyl-5-methoxyphenyl)piperidin-4-yl)piperazin-1-yl)-3-oxopropyl)piperazin-1-yl)-2-(2,6-dioxopiperidin-3-yl)isoindoline-1,3-dione] | 96.02%
> 10000 nM | 12.1% | 21.9 nM | 90.9% | 35.6 nM | 10.5 nM | 75% | 5.35 nM | 86.2% | CCc1cc(Nc2ncc(Br)c(Nc3ccc4nccnc4c3P(C)(C)=O)n2)c(OC)cc1N1CCC(N2CCN(CC3CCN(c4ccc5c(c4)C(=O)N(C4CCC(=O)NC4=O)C5=O)CC3)CC2)CC1 (stereo not drawn) [Example 272, 5-(4-((4-(1-(4-((5-bromo-4-((5-(dimethylphosphoryl)quinoxalin-6-yl)amino)pyrimidin-2-yl)amino)-2-ethyl-5-methoxyphenyl)piperidin-4-yl)piperazin-1-yl)methyl)piperidin-1-yl)-2-(2,6-dioxopiperidin-3-yl)isoindoline-1,3-dione] | 91.58%
